From patent publication US9346802B2, “CARM1 inhibitors and uses thereof” (Epizyme, Inc., priority 2013, dated 2016)

Each compound was assayed against T1, Human CARM1 (PRMT4) (Homo sapiens, UniProt Q86X55) (assay: CARM1 enzyme assay on peptide substrate (3H-SAM Flashplate)). Conditions: CARM1 0.25 nM, 3H-SAM 30 nM, peptide 250 nM, 30 min preincubation; read-out: Biochem IC50.
T1 construct: Flag-CARM1-His was eluted with 200 ug/ml FLAG peptide in buffer A; made in house; host or cells: HEK 293F cells infected with recombinant baculovirus (pFastBacMam)
T1 sequence (Q86X55 1-585 isoform Q86X55-1): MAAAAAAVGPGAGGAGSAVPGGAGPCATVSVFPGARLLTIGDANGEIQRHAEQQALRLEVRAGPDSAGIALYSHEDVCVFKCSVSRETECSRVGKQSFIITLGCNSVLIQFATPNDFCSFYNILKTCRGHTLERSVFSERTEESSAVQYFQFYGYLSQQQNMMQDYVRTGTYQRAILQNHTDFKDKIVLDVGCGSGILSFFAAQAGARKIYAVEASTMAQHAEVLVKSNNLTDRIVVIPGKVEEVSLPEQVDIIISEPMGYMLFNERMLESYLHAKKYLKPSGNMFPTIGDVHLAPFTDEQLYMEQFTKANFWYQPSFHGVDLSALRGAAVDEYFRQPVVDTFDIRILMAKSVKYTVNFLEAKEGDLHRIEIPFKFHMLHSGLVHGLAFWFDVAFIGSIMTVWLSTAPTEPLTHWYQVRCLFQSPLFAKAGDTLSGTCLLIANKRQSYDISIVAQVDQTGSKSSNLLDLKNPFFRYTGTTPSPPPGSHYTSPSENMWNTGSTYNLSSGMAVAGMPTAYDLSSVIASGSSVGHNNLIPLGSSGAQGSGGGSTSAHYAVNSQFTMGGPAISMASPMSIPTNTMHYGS
Format: biochemical
Description: Peptide representative of human histone H3 residues 16-30 was synthesized with an N-terminal linker-affinity tag motif and a C-terminal amide cap by 21st Century Biochemicals. The peptide was purified by high-performance liquid chromatography (HPLC) to greater than 95% purity and confirmed by liquid chromatography mass spectrometry (LC-MS). The sequence was Biot-Ahx-[…]-amide and contained a monomethylated arginine at position 26 (SEQ ID NO.:1).
Human CARM1 (PRMT4) (NM_199141.1) transcript clone was amplified from an HEK 293 cDNA library, incorporating a flanking 5′ sequence encoding a FLAG tag ([…]) (SEQ ID NO.:2) fused directly to Ala 2 of CARM1 and 3′ sequence encoding a hexa His sequence ([…]) (SEQ ID NO.:3) fused directly to Ser 608. The gene sequence encoding isoform1 containing a deletion of amino acids 539-561 was amplified subsequently and subcloned into pFastBacMam (Viva Biotech).
Recombinant baculovirus were generated according to Bac-to-Bac kit instructions (Life Technologies). Protein over-expression was accomplished by infecting exponentially growing HEK 293F cell culture at 1.3×10^6 cell/ml with virus (MOI=10) in the presence of 8 mM sodium butyrate. Infections were carried out at 37° C. for 48 hours, harvested by centrifugation, and stored at −80° C. for purification.
Expressed full-length human Flag- and His-tagged CARM1 protein was purified from cell paste by anti-flag M2 affinity chromatography with resin equilibrated with buffer containing 20 mM Tris, 150 mM NaCl, 5% glycerol, pH 7.8. Column was washed with 500 mM NaCl in buffer A and Flag-CARM1-His was eluted with 200 ug/ml FLAG peptide in buffer A. Pooled fractions were dialyzed in 20 mM Tris, 150 mM NaCl, 5% glycerol and 1 mM DTT, pH 7.8. The purity of recovered protein was 94.
The assays were all performed in a buffer consisting of 20 mM Bicine (pH=7.6), 1 mM TCEP, 0.005% BSG, and 0.002% Tween 20, prepared on the day of use. Compounds in 100% DMSO (1 ul) were spotted into a polypropylene 384-well V-bottom plates (Greiner) using a Platemate Plus outfitted with a 384-channel head (Thermo Scientific). DMSO (1 ul) was added to Columns 11, 12, 23, 24, rows A-H for the maximum signal control and 1 ul of SAH, a known product and inhibitor of CARM1, was added to columns 11, 12, 23, 24, rows I-P for the minimum signal control. A cocktail (40 ul) containing the CARM1 enzyme was added by Multidrop Combi (Thermo-Fisher). The compounds were allowed to incubate with CARM1 for 30 min at room temperature, then a cocktail (10 ul) containing ^3H-SAM and peptide was added to initiate the reaction (final volume=51 ul). The final concentrations of the components were as follows: CARM1 was 0.25 nM, ^3H-SAM was 30 nM, peptide was 250 nM, SAH in the minimum signal control wells was 1 mM, and the DMSO concentration was 2%. The assays were stopped by the addition of non-radiolabeled SAM (10 ul) to a final concentration of 300 uM, which dilutes the ^3H-SAM to a level where its incorporation into the peptide substrate is no longer detectable. 50 ul of the reaction in the 384-well polypropylene plate was then transferred to a 384-well Flashplate and the biotinylated peptides were allowed to bind to the streptavidin surface for at least 1 hour before being washed once with 0.1% Tween20 in a Biotek ELx405 plate washer. The plates were then read in a PerkinElmer TopCount plate reader to measure the quantity of ^3H-labeled peptide bound to the Flashplate surface, measured as disintegrations per minute (dpm) or alternatively, referred to as counts per minute (cpm).
[formula] where dpm=disintegrations per minute, cmpd=signal in assay well, and min and max are the respective minimum and maximum signal controls.
[formula] where top and bottom are the normally allowed to float, but may be fixed at 100 or 0 respectively in a 3-parameter fit. The Hill Coefficient normally allowed to float but may also be fixed at 1 in a 3-parameter fit. […]
CNCC(O)COc1cccc(-c2cc(N(C)C3CCOCC3)nc(C)n2)c1 (centres unmarked) [Compound 1-2] was tested, and the IC50 was 100 to 1000 nM.
Compound CNCC(O)COc1cccc(-c2nc(NCCCN3CCCC3=O)cc(-c3ccc4c(c3)OCCO4)n2)c1 (centres unmarked) [Compound 66-1] has an IC50 of 100 to 1000 nM.
Compound C#Cc1cc(NC2CCOCC2)nc(-c2cccc(OCC(O)CNC)c2)n1 (centres unmarked) [Compound 5-1] has an IC50 of 3000 to 10000 nM.
CNCC(O)COc1cccc(-c2nc(-c3ccc(C(F)(F)F)nc3)cc(N(CCOC)CCOC)n2)c1 (centres unmarked) [Compound 67-1] showed an IC50 of 100 to 1000 nM.
CNCC(O)COc1cccc(-c2nc(-c3ccc(S(C)(=O)=O)cc3)cc(N(CCOC)CCOC)n2)c1 (centres unmarked) [Compound 72-1] gave an IC50 of 100 to 1000 nM.
Work on CNCC(O)COc1cccc(-c2nc(NC3CCOCC3)cc(-c3cnn(CC(C)C)c3)n2)c1 (centres unmarked) [Compound 51-1] yielded an IC50 of 100 to 1000 nM.
Work on CNCC(O)COc1cc(Cl)cc(-c2nc(-c3cn4ccccc4n3)c(C)c(N(C)C3CCOCC3)n2)c1 (centres unmarked) [Compound 69-1] yielded an IC50 of 100 to 1000 nM.
With CNCC(O)COc1cccc(-c2cc(NC3CCOCC3)nc(-c3ccncc3)n2)c1 (centres unmarked) [Compound 11-2] the IC50 was 100 to 1000 nM.
For CNCC(O)COc1cccc(-c2nc(NCCCN3CCCC3=O)cc(-c3ccc(OC)c(OC)c3)n2)c1 (centres unmarked) [Compound 68-1], the IC50 was 100 to 1000 nM.
Work on CNCC(O)COc1cccc(-c2nc(-c3ccnc(OC)c3)cc(N(C)CCC#N)n2)c1 (centres unmarked) [Compound 30-1] yielded an IC50 of 100 to 1000 nM.
For CNCC(O)COc1cccc(-c2nc(-c3ccc(OC)c(OC)c3)cc(N(C)C3CCOCC3)n2)c1 (centres unmarked) [Compound 61-1], the IC50 was 1000 to 3000 nM.
For CNCC(O)COc1cccc(-c2nc(NC3CCOCC3)cc(-c3cccc(C#N)c3)n2)c1 (centres unmarked) [Compound 38-1], the IC50 was 100 to 1000 nM.
For CNCC(O)COc1cccc(-c2cc(NC3CCOCC3)nc(N3CCOCC3)n2)c1 (centres unmarked) [Compound 12-2], the IC50 was 100 to 1000 nM.
CNCC(O)COc1cc(Cl)cc(-c2nc(C(C)C)cc(N(C)C3CCOCC3)n2)c1 (centres unmarked) [Compound 31-1] gave an IC50 of 100 to 1000 nM.
With CNCC(O)COc1cccc(-c2nc(-c3ccc(C(F)(F)F)nc3)cc(N(C)CCC#N)n2)c1 (centres unmarked) [Compound 54-1] the IC50 was 100 to 1000 nM.
CNCC(O)COc1cccc(-c2nc(NC(C)C)cc(NC3CCOCC3)n2)c1 (centres unmarked) [Compound 16-1] was tested, and the IC50 was 100 to 1000 nM.
CNCC(O)COc1cccc(-c2nc(N3CCOCC3)nc(N[C@H]3CCOC3)c2C)c1 (some centres unmarked) [Compound 13-2] was tested, and the IC50 was 100 to 1000 nM.
Work on CNCC(O)COc1cc(Cl)cc(-c2nc(-c3ccc4c(c3)OCCO4)cc(N(CCOC)CCOC)n2)c1 (centres unmarked) [Compound 74-1] yielded an IC50 of 100 to 1000 nM.
In the case of C=C(Cl)c1cc(NC2CCOCC2)nc(-c2cccc(OCC(O)CNC)c2)n1 (centres unmarked) [Compound 17-1], the IC50 is reported as 1000 to 3000 nM.
CNCC(O)COc1cccc(-c2nc(C)cc(N(C)C3CCOCC3)n2)c1 (centres unmarked) [Compound 6-1] gave an IC50 of 100 to 1000 nM.
Compound CNCC(O)COc1cccc(-c2nc(NC3CCOCC3)cc(NC3CC3)n2)c1 (centres unmarked) [Compound 12-1] has an IC50 of 100 to 1000 nM.
For CNCC(O)COc1cccc(-c2nc(NCCOC)cc(-c3cccc4ncccc34)n2)c1 (centres unmarked) [Compound 39-1], the IC50 was 100 to 1000 nM.
CNCC(O)COc1cc(Cl)cc(-c2nc(-c3cc(C)nc(C)c3)c(C)c(N(C)C3CCOCC3)n2)c1 (centres unmarked) [Compound 63-1] was tested, and the IC50 was 100 to 1000 nM.
For CNCC(O)COc1cccc(-c2nc(NCCOC)cc(-c3cccc(C#N)c3)n2)c1 (centres unmarked) [Compound 23-1], the IC50 was 100 to 1000 nM.
Work on CNCC(O)COc1cccc(-c2cc(N[C@H]3CCOC3)nc(C3CCOCC3)n2)c1 (some centres unmarked) [Compound 10-2] yielded an IC50 of 100 to 1000 nM.
For C#Cc1cc(N(C)C2CCOCC2)nc(-c2cccc(OCC(O)CNC)c2)n1 (centres unmarked) [Compound 7-1], the IC50 was 100 to 1000 nM.
With CNCC(O)COc1cccc(-c2nc(NCCCN3CCCC3=O)cc(-c3ccc(S(C)(=O)=O)cc3)n2)c1 (centres unmarked) [Compound 73-1] the IC50 was 100 to 1000 nM.
In the case of CNCC(O)COc1cc(Cl)cc(-c2nc(-c3ccc(OC)c(OC)c3)cc(N(CCOC)CCOC)n2)c1 (centres unmarked) [Compound 75-1], the IC50 is reported as 100 to 1000 nM.
CNCC(O)COc1cccc(-c2cc(NC3CCOCC3)nc(N(C)C)n2)c1 (centres unmarked) [Compound 3-2] gave an IC50 of 100 to 1000 nM.
Work on CNCC(O)COc1cc(Cl)cc(-c2nc(-c3ccncc3)c(C)c(N(C)C3CCOCC3)n2)c1 (centres unmarked) [Compound 58-1] yielded an IC50 of 100 to 1000 nM.
Compound CNCC(O)COc1cccc(-c2nc(-c3cccc4ncccc34)cc(N(C)CCC#N)n2)c1 (centres unmarked) [Compound 44-1] has an IC50 of 100 to 1000 nM.
For CNCC(O)COc1cccc(-c2nc(-c3ccnc(C)c3)cc(N(C)C3CCOCC3)n2)c1 (centres unmarked) [Compound 40-1], the IC50 was 100 to 1000 nM.
Work on CNCC(O)COc1cccc(-c2nc(C(C)C)c(C)c(N(C)C3CCOCC3)n2)c1 (centres unmarked) [Compound 21-1] yielded an IC50 of 100 to 1000 nM.
For CNCC(O)COc1cccc(-c2nc(-c3cc4ccccc4o3)cc(N(C)CCC#N)n2)c1 (centres unmarked) [Compound 35-1], the IC50 was 100 to 1000 nM.
In the case of CNCC(O)COc1cccc(-c2nc(-c3c(C)noc3C)cc(N(CCOC)CCOC)n2)c1 (centres unmarked) [Compound 52-1], the IC50 is reported as 100 to 1000 nM.
In the case of CNCC(O)COc1cc(Cl)cc(-c2nc(-c3ccnc(OC)c3)cc(N(CCOC)CCOC)n2)c1 (centres unmarked) [Compound 65-1], the IC50 is reported as 100 to 1000 nM.
With CNCC(O)COc1cccc(-c2nc(-c3cncnc3)cc(N(CCOC)CCOC)n2)c1 (centres unmarked) [Compound 43-1] the IC50 was 100 to 1000 nM.
For CNCC(O)COc1cc(Cl)cc(-c2nc(N[C@@H]3CCOC3)c(C)c(C3=CCOCC3)n2)c1 (some centres unmarked) [Compound 47-1], the IC50 was 100 to 1000 nM.
CNCC(O)COc1cc(Cl)cc(-c2nc(C3CC3)cc(N(C)C3CCOCC3)n2)c1 (centres unmarked) [Compound 28-1] gave an IC50 of 100 to 1000 nM.
CNCC(O)COc1cccc(-c2cc(NC3CCOCC3)nc(NC(C)C)n2)c1 (centres unmarked) [Compound 9-2] gave an IC50 of 100 to 1000 nM.
CNCC(O)COc1cccc(-c2nc(NC3CCOCC3)cc(N3CCOCC3)n2)c1 (centres unmarked) [Compound 27-1] was tested, and the IC50 was 100 to 1000 nM.
